# Tests used:
# GT3/pLYSC1 = test: Growth of completely AK-deficient GT3 strain possessing lysC plasmid on M9 minimal agar with added lysine or AEC; for Growth: key: +: growth; ±: some growth; -: no growth; type: cell-based, E. coli; conditions: for growth: M9 agar medium, 37°C, 2 day culturing; for MIC: Escherichia coli, GT3, M9 minimal agar plate medium, read-out: concentration at which growth was completely inhibited
# Experimental: (§1) First, pLYSC1 and pLYSC2 were each incorporated into E. coli GT3 for its transformation to obtain two different transformants, and culturing was effected on an M9 minimal agar plate medium containing lysine or AEC. Also, the growth inhibition concentration of lysine or AEC was determined, and the conditions for selection of lysC* were investigated.
# GT3/pLYSC2 = test: as above; type: cell-based, E. coli; conditions: M9 agar medium, 37°C, 2 day culturing; note: key: +: growth; ±: some growth; -: no growth
# Experimental: as §1
# [1] = molecular target: T1, Escherichia coli aspartokinase III (AK III) mutant lysC* No. 117, 345 Ser→Leu (Escherichia coli, UniProt P08660, S345L); test: Aspartokinase (AK III) activity, lysine-dependent inhibition; type: biochemical
# T1 construct: made in house; host or cells: E. coli GT3 carrying mutant pLYSC1*; cell-free extract
# T1 sequence (P08660 2-449 S345L): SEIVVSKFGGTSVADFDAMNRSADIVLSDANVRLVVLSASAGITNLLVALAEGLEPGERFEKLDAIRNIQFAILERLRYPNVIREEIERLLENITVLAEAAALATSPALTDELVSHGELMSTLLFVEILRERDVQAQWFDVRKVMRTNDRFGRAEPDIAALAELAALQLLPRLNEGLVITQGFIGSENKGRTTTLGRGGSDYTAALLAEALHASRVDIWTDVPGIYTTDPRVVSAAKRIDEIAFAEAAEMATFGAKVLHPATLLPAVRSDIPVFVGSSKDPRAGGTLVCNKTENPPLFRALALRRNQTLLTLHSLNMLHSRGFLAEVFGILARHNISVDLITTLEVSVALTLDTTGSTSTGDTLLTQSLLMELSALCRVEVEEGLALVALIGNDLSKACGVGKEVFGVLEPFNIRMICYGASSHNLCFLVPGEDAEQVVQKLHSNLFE
# Experimental: (§2) A completely AK-deficient GT3 strain was used as the host in respect of which the above mentioned 14 mutant pLYSC1's (named the pLYSC1* series) and wild pLYSC1 plasmids were respectively used for transformation, after which a cell-free extract was prepared from the transformants and the enzyme activity of AK III was measured. The method for the measurement of the enzyme activity was as follows.
# (§3) • (1) Culturing of cells in 2 x TY medium, followed by cell collection at O.D. 660 nm = approx. 0.8. • (2) Washing with 0.02 M KH2PO4 (pH 6.75) - 0.03 M β mercaptoethanol at 0°C. • (3) Sonic crushing of cells (0°C, 100 W, 30 sec x 4 times). • (4) Centrifugation at 0°C, 33 krpm for 1 hour, followed by addition of ammonium sulfate to supernatant to 80% saturation. • (5) Centrifugation, followed by dissolution of pellets in buffer of (2), and preservation (-20°C).
# (§4) The method of measuring the enzyme activity was according to the method of Stadtman, et al. (Stadtman, E.R., Cohen, G.N., Lebras, G. and Robichon-Szulmajster, H., J. Biol. Chem., 236, 2033, 1961).
# (§5) Table 5: Reaction solution composition
# (§6) The measurement method is outlined in Table 6 below. Table 6: Outline of measurement method
# (§7) For the measurement of the enzyme activity of AK, lysine was added to the enzyme reaction solutions at various concentrations, and the levels of lysine-dependent inhibition were determined.
# (§8) In Table 7, the inhibition release is presented as the activity (%) in the presence of 100 mM of lysine with respect to the activity of a lysine-free reaction solution, and the thermal stability is presented as the maintenance of activity (%) after treatment at 55°C for 1.5 hours with respect to the activity without heating. Table 7: Inhibition release by lysine and thermal stability
# [2] = molecular target: T2, Escherichia coli aspartokinase III (AK III) mutant lysC* No. 80, 352 Thr→Ile (Escherichia coli, UniProt P08660, T352I); test: as above; type: biochemical
# T2 construct: made in house; host or cells: E. coli GT3 carrying mutant pLYSC1*; cell-free extract
# T2 sequence (P08660 2-449 T352I): as the sequence (P08660 2-449 S345L) above, with L344S, T351I counted along it
# Experimental: as §2, §3, §4, §5, §6, §7, §8
# [3] = molecular target: T3, Escherichia coli aspartokinase III (AK III) mutant lysC* No. 169, 352 Thr→Ile, 369 Ser→Phe (Escherichia coli, UniProt P08660, S369F/T352I); test: as above; type: biochemical
# T3 construct: made in house; host or cells: E. coli GT3 carrying mutant pLYSC1*; cell-free extract
# T3 sequence (P08660 2-449 T352I/S369F): as the sequence (P08660 2-449 S345L) above, with L344S, T351I, S368F counted along it
# Experimental: as §2, §3, §4, §5, §6, §7, §8
# [4] = molecular target: T4, Escherichia coli aspartokinase III (AK III) mutant lysC* No. 24, 352 Thr→Ile (Escherichia coli, UniProt P08660, T352I); test: as above; type: biochemical
# T4 construct: made in house; host or cells: E. coli GT3 carrying mutant pLYSC1*; cell-free extract
# T4 sequence (P08660 2-449 T352I): as the sequence (P08660 2-449 S345L) above, with L344S, T351I counted along it
# Experimental: as §2, §3, §4, §5, §6, §7, §8
# [5] = molecular target: T5, Escherichia coli aspartokinase III (AK III) mutant lysC* No. 149, 34 Arg→Cys, 323 Gly→Asp (Escherichia coli, UniProt P08660, G323D/R34C); test: as above; type: biochemical; conditions: activity in the presence of 100 mM of lysine with respect to lysine-free reaction solution
# T5 construct: made in house; host or cells: E. coli GT3 carrying mutant pLYSC1*; cell-free extract
# T5 sequence (P08660 2-449 R34C/G323D): as the sequence (P08660 2-449 S345L) above, with R33C, G322D, L344S counted along it
# Experimental: as §2, §3, §4, §5, §6, §7, §8
# [6] = molecular target: T6, Escherichia coli aspartokinase III (AK III) mutant lysC* No. 172, 318 Met→Ile, 349 Val→Met (Escherichia coli, UniProt P08660, M318I/V349M); test: as above; type: biochemical
# T6 construct: made in house; host or cells: E. coli GT3 carrying mutant pLYSC1*; cell-free extract
# T6 sequence (P08660 2-449 M318I/V349M): as the sequence (P08660 2-449 S345L) above, with M317I, L344S, V348M counted along it
# Experimental: as §2, §3, §4, §5, §6, §7, §8
# [7] = molecular target: T7, Escherichia coli aspartokinase III (AK III, lysC), wild type, SEQ ID NO: 1 (Escherichia coli, UniProt P08660); test: Aspartokinase (AK III) activity, lysine-dependent inhibition, crude enzyme, hydroxamate method of Stadtman et al.; type: biochemical
# T7 construct: made in house; host or cells: E. coli GT3 (lacks AK I, II and III) carrying pLYSC1; cell-free extract, ammonium sulfate fraction
# T7 sequence (P08660 2-449): as the sequence (P08660 2-449 S345L) above, with L344S counted along it
# Experimental: as §2, §3, §4, §5, §6, §7, §8
# [8] = lysine, compared with wild type AK III
Compound,growth (GT3/pLYSC1; 0.2 mM added),growth (GT3/pLYSC1; 0.4 mM added),growth (GT3/pLYSC1; 0.8 mM added),growth (GT3/pLYSC1; 1.5 mM added),growth (GT3/pLYSC1; 3 mM added),growth (GT3/pLYSC1; 6 mM added),growth (GT3/pLYSC1; 12 mM added),growth (GT3/pLYSC1; 25 mM added),growth (GT3/pLYSC1; 50 mM added),MIC (GT3/pLYSC1) [µM],growth (GT3/pLYSC2; 0.2 mM added),growth (GT3/pLYSC2; 0.4 mM added),growth (GT3/pLYSC2; 0.8 mM added),growth (GT3/pLYSC2; 1.5 mM added),growth (GT3/pLYSC2; 3 mM added),growth (GT3/pLYSC2; 6 mM added),growth (GT3/pLYSC2; 12 mM added),growth (GT3/pLYSC2; 25 mM added),growth (GT3/pLYSC2; 50 mM added),further results
"NCCSC[C@H](N)C(=O)O [AEC, S-2-aminoethylcysteine, reference compound]",-,-,-,-,-,-,-,-,-,~200,±,±,±,±,±,-,-,-,-,
NCCCC[C@H](N)C(=O)O [lysine],-,-,-,-,-,-,-,-,-,~200,+,+,+,+,+,+,+,+,+,"inhibition ([1]; 100 mM of lysine): practically no inhibition; 50% inhibition concentration (fold) [1, 8]: ≥ 200 fold; inhibition ([2]; 100 mM of lysine): practically no inhibition; 50% inhibition concentration (fold) [2, 8]: ≥ 200 fold; inhibition ([3]; 100 mM of lysine): practically no inhibition; 50% inhibition concentration (fold) [3, 8]: ≥ 200 fold; inhibition ([4]; 100 mM of lysine): practically no inhibition; 50% inhibition concentration (fold) [4, 8]: ≥ 200 fold; Inhibition release (%) [5]: 59%; inhibition ([6]; 100 mM of lysine): practically no inhibition; 50% inhibition concentration (fold) [6, 8]: ≥ 200 fold; IC50 [7]: ~450 µM; inhibition at 5000 µM ([7]; 5 mM of lysine): ~100%; activity at 100000 µM ([7]; activity in the presence of 100 mM of lysine with respect to lysine-free reaction solution, read-out: Inhibition release (%)): 0%; growth (GT3/pLYSC1; 100 mM added): -; growth (GT3/pLYSC1; 200 mM added): -; growth (GT3/pLYSC2; 100 mM added): ±; growth (GT3/pLYSC2; 200 mM added): -"

# — patent publication EP1020526B1, “Process for producing L-Threonine by fermentation” (priority 1992, dated 1994)
